# Tested on: plasma inosine
# Test: Plasma inosine after intraperitoneal injection in Lewis Rats (HPLC of plasma extract)
# Type: in vivo
# Settings: intraperitoneal injection in aqueous carrier with ten percent DMSO, 30 mg twice per day, versus vehicle controls, plasma taken at specific times after administration
# Procedure: A pharmaceutical composition for intraperitoneal injection is prepared for testing the compound (IA). An intraperitoneal injection solution containing the compound of Example 8 is dissolved in an aqueous carrier that contains ten percent DMSO.
# The compound (IA) is intraperitoneally injected into Lewis Rats via the test composition of Example 21 to provide 30 mg of the compound (IA), with an injection given twice per day. Controls are used, which receive only the vehicle. At specific times after administration, the animals are sacrificed and plasma samples are prepared. The plasma is extracted with cold 0.5N HClO4 and neutralized with solid NH4 HCO3. After removal of perchlorate salts, the extract is subjected to HPLC on a reversed phase column (Spherisorb ODSI).
# Compounds prepared as in Examples 10-20 are each made into a pharmaceutical formulation in accordance with the preparation of Example 21 and the resultant injectable solutions are tested in accordance with the procedure of Example 22.
smiles,measurement,value
"Nc1nc2c(Cc3cccnc3)c[nH]c2c(=O)[nH]1 [compound (IA), 2-amino-7-(3-pyridinylmethyl)-3H,5H-pyrrolo[3,2-d]pyrimidin-4-one]",plasma inosine,significant increase
